Patent US7553974B2, “Crystal of (2R,4R)-monatin potassium salt and sweetener composition containing same” (Ajinomoto Co., Inc., priority 2004, dated 2009)
Counter-ions that a name gives are not always drawn. Like-named read-outs stand apart in the source and are kept apart here.

What was measured:
[1] = format: physicochemical; conditions: for area %: HPLC area of (2R,4R)-monatin relative to total peak area, 210 nm, 60° C. preservation sample; for area % / weight change (%): 1 week; for weight change (%): HPLC quantitation value of 60° C. sample, room temperature sample = 100%
Experimental: The crystals of the (2R,4R)-monatin dipotassium salt obtained in Example 1 and Example 9, and crystals of the (2R,4R)-monatin monopotassium salt produced according to the production method described in the aforementioned WO03/045914 were subjected to a preservation stability test. Each sample (50 mg) was placed in a 4 ml vial (with screw cap) and stored at 60° C. and room temperature for 1 week.
A chromatogram for each sample was measured by HPLC, and the HPLC quantitation value of the 60° C. preservation sample, when that of the room temperature preservation sample was 100%, was shown as a weight change. In addition, an HPLC chromatogram of each sample was measured and the ratio of the area value of (2R,4R)-monatin relative to the total area value of the entire peaks detected (detection wavelength: 210 nm) in the 60° C. preservation sample was expressed as the area %.

[2] = format: physicochemical; conditions: for transmittance (%): 1 g/dl in H2O, room temperature, 490 nm
From the text: The crystals of the (2R,4R)-monatin dipotassium salt obtained in Example 9, (2R,4R)-monatin, and crystals of the (2R,4R)-monatin monopotassium salt produced according to the production method described in the aforementioned WO03/045914 were subjected to a coloring test. Measurement Method of Coloring Test: • Measurement device: CARY 50 UV-VIS spectrophotometer manufactured by Varian Technologies Japan Limited; • Concentration: 1 g/dl; • Solvent: H2O; • Temperature: room temperature; • Measurement wavelength: 490 nm; and • Measurement interval: 30 minutes.

[3] = format: physicochemical
Experimental: The crystals of the (2R,4R)-monatin dipotassium salt obtained in Example 9 and crystals of the (2R,4R)-monatin monopotassium salt were tested for solubility using the following conditions” • Temperature: 20° C.; and
Solubility measurement method: Two test tubes for each of 0, 20, 40, 60, 80, 100% ethanol, which contained 2 ml thereof were prepared. The crystals of the (2R,4R)-monatin dipotassium salt and crystals of the (2R,4R)-monatin monopotassium salt were added thereto in an amount prohibiting complete dissolution. The test tubes were capped and stirred overnight. Then, the mixture was passed through a filter (0.45 μm) and the filtrate was analyzed.

SMILES | preservation stability [1] | area % [1] | weight change (%) [1] | color stability [2] | transmittance (%) ([2]; time 0.0 hour) | transmittance (%) ([2]; time 2.0 hour) | transmittance (%) ([2]; time 4.0 hour) | transmittance (%) ([2]; time 6.0 hour) | transmittance (%) ([2]; time 8.0 hour) | transmittance (%) ([2]; time 10.0 hour) | transmittance (%) ([2]; time 12.0 hour) | transmittance (%) ([2]; time 14.0 hour) | transmittance (%) ([2]; time 16.0 hour) | transmittance (%) ([2]; time 18.0 hour) | transmittance (%) ([2]; time 20.0 hour) | transmittance (%) ([2]; time 22.0 hour) | solubility [3] | area % ([1]; dipotassium salt) | weight change (%) ([1]; dipotassium salt)
N[C@H](C[C@](O)(Cc1c[nH]c2ccccc12)C(=O)[O-])C(=O)[O-].[K+].[K+] [Example 9, (2R,4R)-monatin dipotassium salt] | almost of the same level | 99.6% | 103% | superior | 99.63% | 99.60% | 99.51% | 99.43% | 99.44% | 99.44% | 99.41% | 99.42% | 99.39% | 99.35% | 99.39% | 99.38% | superior |  | 
N[C@H](C[C@](O)(Cc1c[nH]c2ccccc12)C(=O)[O-])C(=O)[O-].[K+].[K+] [Example 1, (2R,4R)-monatin dipotassium salt] |  |  |  |  |  |  |  |  |  |  |  |  |  |  |  |  |  | 98.4% | 99%
NC(CC(O)(Cc1c[nH]c2ccccc12)C(=O)O)C(=O)O [(2R,4R)-monatin monopotassium salt] |  | 99.8% | 100% |  | 100.02% | 99.75% | 99.28% | 98.42% | 97.98% | 96.86% | 95.61% | 94.35% | 92.97% | 91.49% | 90.05% | 88.75% |  |  | 
